Experimental data reported in the CombiSolv-Exp solvation set (Vermeire and Green 2021).

Assay: solvent given as SMILES
[1] = in CC(C)CCCC(C)CCCC(C)CCCCC(C)CCCC(C)CCCC(C)C
[2] = in CCCCCCCCC=CCCCCCCCC(=O)OCC(COC(=O)CCCCCCCC=CCCCCCCCC)OC(=O)CCCCCCCC=CCCCCCCCC

Compound: CCC1CCCCC1
- solvation free energy, 298 K (in Brc1ccccc1): -5.2 kcal/mol
- solvation free energy, 298 K (in C1CCCCC1): -5.59 kcal/mol
- solvation free energy, 298 K (in C1CCOC1): -5.38 kcal/mol
- solvation free energy, 298 K (in C1COCCO1): -4.67 kcal/mol
- solvation free energy, 298 K (in C=CCCCC): -5.39 kcal/mol
- solvation free energy, 298 K (in C=CCCCCCC): -5.34 kcal/mol
- solvation free energy, 298 K (in C=CCCCCCCCC): -5.3 kcal/mol
- solvation free energy, 298 K (in CC1COC(=O)O1): -3.41 kcal/mol
- solvation free energy, 298 K (in CC#N): -3.87 kcal/mol
- solvation free energy, 298 K (in CC(=O)N(C)C): -4.21 kcal/mol
- solvation free energy, 298 K (in CC(=O)O): -4.16 kcal/mol
- solvation free energy, 298 K (in CC(=O)c1ccccc1): -4.54 kcal/mol
- solvation free energy, 298 K (in CC(C)=O): -4.54 kcal/mol
- solvation free energy, 298 K (in CC(C)CC(C)(C)C): -5.28 kcal/mol
- solvation free energy, 298 K [1]: -4.99 kcal/mol
- solvation free energy, 298 K (in CC(C)CCO): -4.74 kcal/mol
- solvation free energy, 298 K (in CC(C)O): -4.53 kcal/mol
- solvation free energy, 298 K (in CC(C)OC(C)C): -5.26 kcal/mol
- solvation free energy, 298 K (in CCBr): -5.53 kcal/mol
- solvation free energy, 298 K (in CCC#N): -4.51 kcal/mol
- solvation free energy, 298 K (in CCC(C)=O): -4.81 kcal/mol
- solvation free energy, 298 K (in CCCC#N): -4.46 kcal/mol
- solvation free energy, 298 K (in CCCC(=O)OCC): -5.04 kcal/mol
- solvation free energy, 298 K (in CCCC(C)=O): -4.91 kcal/mol
- solvation free energy, 298 K (in CCCCC): -5.41 kcal/mol
- solvation free energy, 298 K (in CCCCCC): -5.42 kcal/mol
- solvation free energy, 298 K (in CCCCCC(C)=O): -4.96 kcal/mol
- solvation free energy, 298 K (in CCCCCCC): -5.39 kcal/mol
- solvation free energy, 298 K (in CCCCCCCC): -5.38 kcal/mol
- solvation free energy, 298 K (in CCCCCCCCC): -5.31 kcal/mol
- solvation free energy, 298 K [2]: -5.07 kcal/mol
- solvation free energy, 298 K (in CCCCCCCCCC): -5.28 kcal/mol
- solvation free energy, 298 K (in CCCCCCCCCCCC): -5.21 kcal/mol
- solvation free energy, 298 K (in CCCCCCCCCCCCCCCC): -5.15 kcal/mol
- solvation free energy, 298 K (in CCCCCCCCO): -4.84 kcal/mol
- solvation free energy, 298 K (in CCCCCCOC(C)=O): -5.05 kcal/mol
- solvation free energy, 298 K (in CCCCO): -4.69 kcal/mol
- solvation free energy, 298 K (in CCCCOC(=O)c1ccccc1C(=O)OCCCC): -4.8 kcal/mol
- solvation free energy, 298 K (in CCCCOC(C)=O): -4.99 kcal/mol
- solvation free energy, 298 K (in CCCCOCCCC): -5.24 kcal/mol
- solvation free energy, 298 K (in CCCO): -4.55 kcal/mol
- solvation free energy, 298 K (in CCN(CC)CC): -5.43 kcal/mol
- solvation free energy, 298 K (in CCO): -4.47 kcal/mol
- solvation free energy, 298 K (in CCOC(=O)c1ccccc1C(=O)OCC): -4.24 kcal/mol
- solvation free energy, 298 K (in CCOC(C)=O): -4.83 kcal/mol
- solvation free energy, 298 K (in CCOCC): -5.33 kcal/mol
- solvation free energy, 298 K (in CCOCCOCCOCC): -4.82 kcal/mol
- solvation free energy, 298 K (in CCOc1ccccc1): -4.96 kcal/mol
- solvation free energy, 298 K (in CN1CCCC1=O): -4.2 kcal/mol
- solvation free energy, 298 K (in CN(C)C=O): -4.06 kcal/mol
- solvation free energy, 298 K (in CN(C)P(=O)(N(C)C)N(C)C): -4.49 kcal/mol
- solvation free energy, 298 K (in CNC=O): -3.73 kcal/mol
- solvation free energy, 298 K (in CO): -4.05 kcal/mol
- solvation free energy, 298 K (in COC(C)=O): -4.62 kcal/mol
- solvation free energy, 298 K (in COCCO): -4.06 kcal/mol
- solvation free energy, 298 K (in COc1ccccc1): -4.91 kcal/mol
- solvation free energy, 298 K (in CS(C)=O): -3.28 kcal/mol
- solvation free energy, 298 K (in Cc1ccc(C)cc1): -5.35 kcal/mol
- solvation free energy, 298 K (in Cc1ccccc1): -5.37 kcal/mol
- solvation free energy, 298 K (in Cc1ccccn1): -5 kcal/mol
- solvation free energy, 298 K (in ClC(Cl)(Cl)Cl): -5.58 kcal/mol
- solvation free energy, 298 K (in ClC(Cl)Cl): -5.46 kcal/mol
- solvation free energy, 298 K (in ClCCCl): -4.91 kcal/mol
- solvation free energy, 298 K (in ClCCl): -5.2 kcal/mol
- solvation free energy, 298 K (in Clc1ccccc1): -5.37 kcal/mol
- solvation free energy, 298 K (in FC(F)(F)C(F)(F)C(F)(F)C(F)(F)C(F)(F)C(F)(F)C(F)(F)C(F)(F)F): -3.5 kcal/mol
- solvation free energy, 298 K (in FC(F)(F)C(F)(F)C(F)(F)C(F)(F)C(F)(F)C(F)(F)F): -3.53 kcal/mol
- solvation free energy, 298 K (in Fc1ccccc1): -5.22 kcal/mol
- solvation free energy, 298 K (in ICI): -3.85 kcal/mol
- solvation free energy, 298 K (in N#Cc1ccccc1): -4.57 kcal/mol
- solvation free energy, 298 K (in NC=O): -1.81 kcal/mol
- solvation free energy, 298 K (in Nc1ccccc1): -3.93 kcal/mol
- solvation free energy, 298 K (in O): 2.14 kcal/mol
- solvation free energy, 298 K (in O=C1CCCCC1): -4.85 kcal/mol
- solvation free energy, 298 K (in O=C1CCCO1): -3.62 kcal/mol
- solvation free energy, 298 K (in O=CN1CCOCC1): -3.52 kcal/mol
- solvation free energy, 298 K (in O=Cc1ccco1): -3.95 kcal/mol
- solvation free energy, 298 K (in OCCCCCO): -3.47 kcal/mol
- solvation free energy, 298 K (in OCCCCO): -3.26 kcal/mol
- solvation free energy, 298 K (in OCCCO): -2.9 kcal/mol
- solvation free energy, 298 K (in OCCO): -2.11 kcal/mol
- solvation free energy, 298 K (in OCCOCCO): -2.81 kcal/mol
- solvation free energy, 298 K (in OCCOCCOCCO): -3.01 kcal/mol
- solvation free energy, 298 K (in OCc1ccccc1): -4.14 kcal/mol
- solvation free energy, 298 K (in S=C=S): -5.65 kcal/mol
- solvation free energy, 298 K (in c1ccccc1): -5.35 kcal/mol
- solvation free energy, 298 K (in c1ccncc1): -4.73 kcal/mol

Compound: ClC(Cl)C(Cl)(Cl)Cl
- solvation free energy, 298 K (in O): -1.31 kcal/mol

Compound: O=C(O)CCCc1ccccc1
- solvation free energy, 298 K (in O): -9.07 kcal/mol

Compound: COC(=O)C1CCCCC1
- solvation free energy, 298 K (in O): -3.3 kcal/mol

Compound: CCCCN(CC)N=O
- solvation free energy, 298 K (in CC(C)CC(C)(C)C): -6.49 kcal/mol
- solvation free energy, 298 K (in O): -5.25 kcal/mol

Compound: CCCCCCO[N+](=O)[O-]
- solvation free energy, 298 K (in O): -1.66 kcal/mol

Compound: C=CCCCCCCCCCC
- solvation free energy, 298 K (in CN(C)C=O): -6.25 kcal/mol
- solvation free energy, 298 K (in O): 2.58 kcal/mol

Compound: COC(=O)c1ccc(Cl)c(Cl)c1
- solvation free energy, 298 K (in CN(C)C=O): -9.19 kcal/mol
- solvation free energy, 298 K (in O): -3.75 kcal/mol

Compound: FC(F)F
- solvation free energy, 298 K (in CCCCCCCC(=O)OCC(COC(=O)CCCCCCC)OC(=O)CCCCCCC): -0.46 kcal/mol
- solvation free energy, 298 K (in CCCCCCCCC): 0.06 kcal/mol
- solvation free energy, 298 K (in CCCCCCCCO): -0.21 kcal/mol
- solvation free energy, 298 K (in CN1CCCC1=O): -1.35 kcal/mol
- solvation free energy, 298 K (in CN(C)C=O): -0.86 kcal/mol
- solvation free energy, 298 K (in O): 0.7 kcal/mol

Compound: O=[N+]([O-])c1ccc(Cl)cc1
- solvation free energy, 298 K (in O): -5.05 kcal/mol

Compound: CC(C)CCl
- solvation free energy, 298 K (in C1CCOC1): -4.39 kcal/mol
- solvation free energy, 298 K (in C1CCOCC1): -4.28 kcal/mol
- solvation free energy, 298 K (in C=CCCCCCCCCCCCCCC): -3.51 kcal/mol
- solvation free energy, 298 K (in CCCCCC): -3.87 kcal/mol
- solvation free energy, 298 K (in COC(C)(C)C): -4.13 kcal/mol
- solvation free energy, 298 K (in O): 0.03 kcal/mol

Compound: Nc1ccc([N+](=O)[O-])cc1
- solvation free energy, 298 K (in CC(C)CC(C)(C)C): -8.11 kcal/mol
- solvation free energy, 298 K (in CC(C)CO): -11.6 kcal/mol
- solvation free energy, 298 K (in CCC(C)O): -11.9 kcal/mol
- solvation free energy, 298 K (in CCCCOC(C)=O): -12.7 kcal/mol
- solvation free energy, 298 K (in CCCCOCCCC): -11.1 kcal/mol
- solvation free energy, 298 K (in COC(C)=O): -13.2 kcal/mol

Compound: CCCOCCO
- solvation free energy, 298 K (in O): -6.4 kcal/mol

Compound: O=C1CCCO1
- solvation free energy, 298 K (in CC(C)CC(C)(C)C): -4.99 kcal/mol

Compound: O=C(O)CCc1ccccc1
- solvation free energy, 298 K (in O): -9 kcal/mol

Compound: FCCF
- solvation free energy, 298 K (in CCCO): -3.64 kcal/mol

Compound: Oc1ccc(Br)cc1Br
- solvation free energy, 298 K (in O): -5.69 kcal/mol

Compound: CCCCCCCCCCCCCCCO
- solvation free energy, 298 K (in CCCCOCCCC): -12.4 kcal/mol
- solvation free energy, 298 K (in O): -2.92 kcal/mol

Compound: O=C(O)c1ccc2ccccc2c1
- solvation free energy, 298 K (in C=CCCCCCCC=C): -9.58 kcal/mol
- solvation free energy, 298 K (in C=CCCCCCCCCCCCCCC): -9.37 kcal/mol
- solvation free energy, 298 K (in O): -8.54 kcal/mol

Compound: COC(=O)C(C)(C)C
- solvation free energy, 298 K (in O): -2.4 kcal/mol

Compound: C=C1CCC2CC3C(C)CCC13C2(C)C (stereo unspecified)
- solvation free energy, 298 K (in O): 0.83 kcal/mol

Compound: CC(C)NC(C)C
- solvation free energy, 298 K (in O): -3.22 kcal/mol

Compound: C=CCCl
- solvation free energy, 298 K (in O): -0.57 kcal/mol

Compound: Brc1cc(Br)cc(Br)c1
- solvation free energy, 298 K [2]: -8.73 kcal/mol
- solvation free energy, 298 K (in O): -1.91 kcal/mol

Compound: CCCCCNCc1ccc(C)cc1
- solvation free energy, 298 K (in O): -5.21 kcal/mol

Compound: CCCCOCCO
- solvation free energy, 298 K (in O): -6.25 kcal/mol

Compound: CCCC(C)=O
- solvation free energy, 298 K (in CC(C)CC(C)(C)C): -4.14 kcal/mol
- solvation free energy, 298 K [1]: -3.72 kcal/mol
- solvation free energy, 298 K (in CCCCCCC): -4.07 kcal/mol
- solvation free energy, 298 K (in CCCCCCCC): -3.87 kcal/mol
- solvation free energy, 298 K (in CCCCCCCCCC): -3.93 kcal/mol
- solvation free energy, 298 K (in CCCCCCCCCCCCCCCC): -3.74 kcal/mol
- solvation free energy, 298 K (in CCCCCCCCO): -4.35 kcal/mol
- solvation free energy, 298 K (in CCN1CCCC1=O): -4.86 kcal/mol
- solvation free energy, 298 K (in CCN(CC)C(C)=O): -4.91 kcal/mol
- solvation free energy, 298 K (in CCNC(C)=O): -4.61 kcal/mol
- solvation free energy, 298 K (in CCNC=O): -4.69 kcal/mol
- solvation free energy, 298 K (in CN1CCCC1=O): -4.73 kcal/mol
- solvation free energy, 298 K (in CN1CCCCC1=O): -4.83 kcal/mol
- solvation free energy, 298 K (in CNC=O): -4.69 kcal/mol
- solvation free energy, 298 K (in CO): -4.88 kcal/mol
- solvation free energy, 298 K (in NC=O): -4.12 kcal/mol
- solvation free energy, 298 K (in O): -3.46 kcal/mol
- solvation free energy, 298 K (in O=CN1CCOCC1): -4.52 kcal/mol
- solvation free energy, 298 K (in [2H]O[2H]): -3.38 kcal/mol

Compound: CS(C)=O
- solvation free energy, 298 K (in CCCCCCCCCCCCCCCC): -4.14 kcal/mol
- solvation free energy, 298 K (in CCOC(C)=O): -6.66 kcal/mol

Compound: Nc1ccc(Cc2ccc(N)cc2)cc1
- solvation free energy, 298 K (in O): -16.3 kcal/mol
